{"source": "patent US7244586B2", "about": "“DNA molecules encoding ligand-gated ion channels from Drosophila melanogaster” (Merck & Co., Inc., priority 2000, dated 2007)", "system": "DmLGIC AC15", "details": "AC15 clone expressed in Xenopus oocyte", "protocol": "Full length cDNA clones corresponding to the selected RT-PCR sequences were used as template for synthesis of in vitro transcribed RNA (Ambion Inc.). The capped cRNA transcripts are synthesized using appropriate oligonucleotide primers and the mMESSAGE mMACHINE in vitro RNA transcription kit from Ambion. Xenopus laevis oocytes were prepared and injected using standard methods as described (Arena et al., 1991, Mol. Pharmacol. 40: 368–374; Arena et al, 1992, Mol. Brain Res. 15: 339–348). Adult female Xenopus laevis were anesthetized with 0.17% tricaine methanesulfonate and the ovaries were surgically removed and placed in a dish consisting of (mM): NaCl 82.5, KCl 2, MgCl2 1, CaCl2 1.8, HEPES 5, adjusted to pH 7.5 with NaOH (OR-2). Ovarian lobes were broken open, rinsed several times, and gently shaken in OR-2 containing 0.2% collagenase (Sigma, Type 1A) for 2–5 hours. When approximately 50% of the follicular layers were removed, Stage V and VI oocytes were selected and placed in media consisting of (mM): NaCl 86, KCl 2, MgCl2 1, CaCl2 1.8, HEPES 5, Na pyruvate 2.5, theophylline 0.5, gentamicin 0.1 adjusted to pH 7.5 with NaOH (ND-96) for 24–48 hours before injection. For most experiments, oocytes were injected with 10 ng of cRNA in 50 nl of RNase free water. Control oocytes were injected with 50 nl of water. […]"}
{"smiles": "NCCc1c[nH]cn1", "note": "[histamine]", "values": [{"measurement": "response of functional single channel protein to addition of histamine", "value": "responds to the addition of histamine"}]}
